The source of these data is publication PMC9045377, “CpxA Phosphatase Inhibitor Activates CpxRA and Is a Potential Treatment for Uropathogenic Escherichia coli in a Murine Model of Infection” (Microbiology Spectrum, 2022).

The structures appear in SMILES notation.

The test system of one experiment is CpxR-P. The experiment in a line: CpxR-P accumulation in CFT073 cultured in human urine (Phos-Tag gel, Western blot, densitometry). Particulars: 150 μM, 5 h, 4 experiments. The experiment is classed as cell-based, Escherichia coli. The protocol: To examine whether treatment with compound 26 fostered higher accumulation of CpxR-P in CFT073 than in untreated CFT073 or CFT073ΔcpxA::cat, we cultured CFT073 in human urine in the presence of 150 μM compound 26 dissolved in DMSO, and CFT073 and CFT073ΔcpxA::cat in the presence of DMSO alone (hereafter called the CFT073 and CFT073ΔcpxA::cat controls); we chose 150 μM, as this was the approximate trough concentration of compound 6 detected in murine urine after 3 days of treatment. Briefly, the bacteria were grown in LB medium overnight, pelleted, washed, and inoculated into human urine and allowed to grow for 5 h. […] We harvested bacterial cells, made cell lysates, and detected CpxR and CpxR-P by Western blotting with an anti-MBP-CpxR antiserum as described ([31]). […] To compare the samples, the CpxR and CpxR-P bands were quantified by densitometry using samples from 4 of the independent experiments. […]
E. coli CFT073 and CFT073ΔcpxA::cat were cultured overnight at 37°C in 5 mL of LB medium overnight with shaking. […] Densitometry values were determined using Photoshop 2021 (version 22.4.3), and the ratio of CpxR-P to CpxR was analyzed by one-way ANOVA adjusted for multiple comparisons using the Tukey procedure.
A general note: In western blotting, separated proteins are transferred to a membrane and probed.

A further experiment has as its system CFT073. Description: Growth of CFT073 in human urine (OD600). In kind it is cell-based, Escherichia coli. The note with it: 150 μM, 5 h.
For the next experiment, the system named is UPEC strain CFT073. In kind it is in vivo, Escherichia coli (in female CBA/J mice). The note with it: compound 6 trial. The protocol: Four groups of eight female CBA/J mice were transurethrally inoculated with a target dose of ∼10^8 CFU of either CFT073 or CFT073ΔcpxA::cat. One group was treated with ciprofloxacin (2.5 mg/kg/dose dissolved in sterile distilled water) s.c. 12, 24, 36, 48, and 60 h after inoculation with CFT073 as described ([31]). The untreated CFT073 and CFT073ΔcpxA::cat inoculated groups were given the vehicle control s.c. at 12, 24, 36, 48, and 60 h after inoculation. The compound 6 treated group were given the drug (100 mg/kg) s.c. at 12, 36, and 60 h after inoculation with CFT073 and received the vehicle control s.c. at 24 and 48 h. The animals were sacrificed 4 h after the last treatment (64 h postinoculation) and CFU per milliliter or CFU per gram of tissue was determined in the urine, bladder, and kidneys.
Animal experiments were conducted according to the guidelines of the University of Michigan Institutional Animal Care and Use Committee. For the animal infection experiments, bacterial strains were cultured at 37°C in LB medium overnight with shaking ([30]). Female CBA/J mice (Jackson Laboratories, Bar Harbor, ME) were inoculated transurethrally with a target dose of ∼10^8 CFU of CFT073 or CFT073ΔcpxA::cat. Mice were subsequently treated 12 h later either with the vehicle, ciprofloxacin hydrochloride (PanReac AppliChem ITW Reagents; Jade Scientific), compound 1, compound 6, or compound 26 as described in Results and euthanized 4 h after the last treatment. Bacterial loads of each strain were calculated from the urine, bladder, and kidneys of mice as previously described; the limits of detection for these assays were 100 CFU/mL or 100 CFU/g of urine and tissue, respectively ([33]). Values of 50 CFU/mL or 50 CFU/g were assigned to specimens whose yields were below the limit of detection.
Due to the extreme skewness of the data, natural log transformation was used before the data were analyzed statistically. Descriptive statistics were calculated for all of the log-transformed variables. Statistical comparisons were done using analysis of variance (ANOVA) with follow-up pairwise tests adjusted for multiple comparisons using the Tukey procedure.

In the case of `N[C@@H]1CCCc2c1[nH]c1cc(F)c(F)cc21` [compound 26], in the experiment with CpxR-P, the “increase of the ratio of CpxR-P to CpxR vs CFT073 control” value is 1.3 fold and the “increase of the ratio of CpxR-P to CpxR vs CFT073ΔcpxA::cat control” value was 1.4 fold. Further, the “effect on bacterial growth” value with CFT073 was “does not inhibit bacterial growth”. The “OD600 of treated CFT073, mean ± SD” value with CFT073 (5 independent experiments) amounted to 0.52 ± 0.2.

For `NC1CCCc2c1[nH]c1ccc(F)cc21` (stereo not shown) [compound 6], the “CFU of CFT073 recovered in urine vs CFT073-inoculated vehicle control” value in the experiment on UPEC strain CFT073 (8 mice/group, compound 6 100 mg/kg s.c. at 12, 36, 60 h, ciprofloxacin 2.5 mg/kg/dose s.c. at 12, 24, 36, 48, 60 h, sacrifice 64 h) is recorded as “no effect”. In the experiment with UPEC strain CFT073 (same regimens), the “CFU of CFT073 recovered in bladder vs CFT073-inoculated vehicle control” value is on record as “no effect” and the “CFU of CFT073 recovered in kidneys vs CFT073-inoculated vehicle control” value was “no effect”.
